Values quoted from earlier work, collected in patent publication US20020028808A1, “Use of potassium channel agonists for the treatment of cancer” (priority 2000, published 2002).
Where two headings read alike, the source gives them in different places.

Columns and labels:
[1] = target: T1, KATP-channels on pancreatic beta-cells (Homo sapiens, UniProt Q09428+Q14654); settings: by activation of KATP-channels
T1 construct: KATP-channels on pancreatic beta-cells; host or cells: pancreatic beta-cells

[2] = test system: adipose tissue of Zucker rats
[3] = test system: healthy individuals
[4] = test system: patients suffering from insulinoma and nesidioblastosis

T1 sequence (Q09428 whole entry): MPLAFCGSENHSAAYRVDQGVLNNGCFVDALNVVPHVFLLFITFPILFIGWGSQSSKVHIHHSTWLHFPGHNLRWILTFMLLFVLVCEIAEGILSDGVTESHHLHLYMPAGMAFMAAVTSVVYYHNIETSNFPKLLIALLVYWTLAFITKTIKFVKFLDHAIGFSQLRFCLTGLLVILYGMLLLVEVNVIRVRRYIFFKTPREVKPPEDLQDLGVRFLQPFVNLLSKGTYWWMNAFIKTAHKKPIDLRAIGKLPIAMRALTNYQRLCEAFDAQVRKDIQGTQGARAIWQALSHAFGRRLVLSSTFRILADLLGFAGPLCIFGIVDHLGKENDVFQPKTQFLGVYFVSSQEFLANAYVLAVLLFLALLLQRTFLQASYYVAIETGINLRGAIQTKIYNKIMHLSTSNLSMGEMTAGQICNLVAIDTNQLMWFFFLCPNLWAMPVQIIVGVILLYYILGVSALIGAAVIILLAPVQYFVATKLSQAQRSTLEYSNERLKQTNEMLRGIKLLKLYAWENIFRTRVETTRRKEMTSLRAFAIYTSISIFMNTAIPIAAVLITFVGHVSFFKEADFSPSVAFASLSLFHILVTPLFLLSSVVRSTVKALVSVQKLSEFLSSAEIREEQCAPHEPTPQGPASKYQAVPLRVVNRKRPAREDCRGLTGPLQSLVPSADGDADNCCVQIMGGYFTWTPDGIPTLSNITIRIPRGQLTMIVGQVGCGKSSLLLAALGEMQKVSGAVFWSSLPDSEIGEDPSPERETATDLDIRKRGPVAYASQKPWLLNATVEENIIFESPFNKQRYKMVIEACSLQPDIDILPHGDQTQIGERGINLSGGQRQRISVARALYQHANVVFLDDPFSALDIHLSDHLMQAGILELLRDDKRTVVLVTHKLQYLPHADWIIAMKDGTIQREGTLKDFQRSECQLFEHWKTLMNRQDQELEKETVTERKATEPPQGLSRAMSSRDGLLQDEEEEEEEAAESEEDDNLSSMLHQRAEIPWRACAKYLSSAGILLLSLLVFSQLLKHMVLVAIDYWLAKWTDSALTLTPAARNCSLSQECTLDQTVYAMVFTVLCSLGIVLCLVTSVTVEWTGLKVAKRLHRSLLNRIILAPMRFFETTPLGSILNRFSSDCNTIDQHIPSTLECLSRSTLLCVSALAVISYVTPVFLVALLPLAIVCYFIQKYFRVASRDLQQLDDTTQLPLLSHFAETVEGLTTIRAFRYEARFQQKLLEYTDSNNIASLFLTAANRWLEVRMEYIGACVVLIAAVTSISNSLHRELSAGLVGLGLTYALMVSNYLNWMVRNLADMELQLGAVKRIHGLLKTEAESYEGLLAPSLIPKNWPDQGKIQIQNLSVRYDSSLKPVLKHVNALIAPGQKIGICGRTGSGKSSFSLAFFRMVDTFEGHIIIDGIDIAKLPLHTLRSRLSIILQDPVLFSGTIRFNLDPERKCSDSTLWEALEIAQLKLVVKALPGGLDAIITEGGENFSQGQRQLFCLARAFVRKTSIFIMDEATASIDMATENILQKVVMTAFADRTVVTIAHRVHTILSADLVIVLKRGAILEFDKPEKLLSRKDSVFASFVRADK
T1 sequence (Q14654 whole entry): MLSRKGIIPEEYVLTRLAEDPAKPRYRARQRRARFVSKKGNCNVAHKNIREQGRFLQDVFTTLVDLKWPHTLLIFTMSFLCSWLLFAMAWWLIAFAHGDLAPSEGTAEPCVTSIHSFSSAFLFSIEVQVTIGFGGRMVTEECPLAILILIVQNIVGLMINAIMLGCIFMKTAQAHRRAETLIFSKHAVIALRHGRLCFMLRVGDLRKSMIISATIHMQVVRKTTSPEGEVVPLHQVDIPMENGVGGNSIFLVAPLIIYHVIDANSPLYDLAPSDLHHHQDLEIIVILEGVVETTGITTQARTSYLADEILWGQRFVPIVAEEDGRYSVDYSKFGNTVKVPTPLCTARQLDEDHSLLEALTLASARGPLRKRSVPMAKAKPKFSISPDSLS

CC1=Nc2ccc(Cl)cc2S(=O)(=O)N1 [diazoxide, 7-chloro-3-methyl-2H-1,2,4-benzothiadiazine 1,1-dioxide]
insulin release [1]: inhibit insulin release
leptin and lipid metabolising enzymes [2]: down-regulate leptin and lipid metabolising enzymes
glucose stimulated insulin release [3]: reduces glucose stimulated insulin release
abnormal hyperinsulinaemia ([4]; nesidioblastosis (PHHI, persistent hyperinsulinaemia and hypoglycemia of infancy)): ameliorates the abnormal hyperinsulinaemia
abnormal hyperinsulinaemia ([4]; patients suffering from insulinoma): ameliorates the abnormal hyperinsulinaemia
